Results from US10441663B2, “Methods for treating cancer” (Bicycle Therapeutics Limited, priority 2016, dated 2019).
*1 amine or outer side, *2 acyl side, *3 side chain or, on linkers, in order; H or OH if unused. Where a SMILES comes first, the peptide text is derived from it. Bridges are numbered along the chain shown (N, C = ends). [ ]: non-standard residue; d: D form. The star is where a group is joined. X1 = COc1cc2cc(c1Cl)N(C)C(=O)C[C@H](OC(=O)[C@H](C)N(C)C(=O)CCSSC(C)CCC(=O)*)[C@]1(C)O[C@H]1[C@H](C)[C@@H]1C[C@@](O)(NC(=O)O1)[C@H](OC)/C=C/C=C(\C)C2; 1Nal = N[C@@H](Cc1cccc2ccccc12)C(=O)O; TBMB = c1c(C[*:1])cc(C[*:3])cc1C[*:2]; Tle = CC(C)(C)[C@H](N)C(=O)O; βAla = NCCC(=O)O; Sar = CNCC(=O)O

System: NCI-H1975 xenograft
Test: In vivo efficacy of BT1718 in NCI-H1975 xenograft
Parameters: species or system Mus Musculus; key to Best response at 10 mg/kg: CR complete response; PR partial response
Procedure: The objective of this study was to evaluate the in vivo anti-tumor efficacy of BT1718in treatment of HT1080, NCI-H292, NCI-H1975, MDA-MB-231, HCC1806, RPMI2650, HCT-15, HT-29 and SNU-16 xenograft in BALB/c nude mice.
The HT1080, NCI-H292, NCI-H1975, MDA-MB-231, HCC1806, RPMI2650, HCT-15, HT-29 and SNU-16 tumor cells were maintained in vitro as a monolayer culture in medium supplemented with 10% heat inactivated fetal bovine serum at 37° C. in an […]. The tumor cells will be routinely subcultured twice weekly by trypsin-EDTA treatment. The cells growing in an exponential growth phase will be harvested and counted for tumor inoculation.
Mouse was inoculated subcutaneously at the right flank with tumor cells for tumor development. The animals were randomized and treatment was started when the average tumor reaches certain volume for the efficacy study, the inoculating cell amounts and starting tumor size were shown as below in Table 9. The test article administration and the animal numbers in each group were shown in the experimental design in Table 10.
All the procedures related to animal handling, care and the treatment in the study were performed according to the guidelines of the Association for Assessment and Accreditation of Laboratory Animal Care (AAALAC). At the time of routine monitoring, the animals were daily checked for any effects of tumor growth and treatments on normal behavior such as mobility, food and water consumption (by looking only), body weight gain/loss (body weights were measured every day), eye/hair matting and any other abnormal effect as stated in the protocol. Death and observed clinical signs were recorded on the basis of the numbers of animals within each subset.
The major endpoint was to see if the tumor growth could be delayed or mice could be cured. Tumor size was measured three times weekly in two dimensions using a caliper, and the volume was expressed in mm^3 using the formula: V=0.5 a×b^2 where a and b are the long and short diameters of the tumor, respectively. The tumor size was then used for calculations of T/C value. The T/C value (in percent) is an indication of antitumor effectiveness; T and C are the mean volumes of the treated and control groups, respectively, on a given day.
TGI was calculated for each group using the formula: TGI (%)=[1−(Ti−T0)/(Vi−V0)]×100; Ti is the average tumor volume of a treatment group on a given day, T0 is the average tumor volume of the treatment group on the day of treatment start, Vi is the average tumor volume of the vehicle control group on the same day with Ti, and V0 is the average tumor volume of the vehicle group on the day of treatment start.
Summary statistics, including mean and the standard error of the mean (SEM), are provided for the tumor volume of each group at each time point.
Statistical analysis of difference in tumor volume among the groups was conducted on the data obtained at the best therapeutic time point after the final dose.
A one-way ANOVA was performed to compare tumor volume among groups, and when a significant F-statistics (a ratio of treatment variance to the error variance) was obtained, comparisons between groups were carried out with Games-Howell test. All data were analyzed using Prism. P<0.05 was considered to be statistically significant.

SMILES: COc1cc2cc(c1Cl)N(C)C(=O)C[C@H](OC(=O)[C@H](C)N(C)C(=O)CCSSC(C)CCC(=O)NCCC(=O)N(C)CC(=O)N(C)CC(=O)N(C)CC(=O)N(C)CC(=O)N(C)CC(=O)N(C)CC(=O)N(C)CC(=O)N(C)CC(=O)N(C)CC(=O)N(C)CC(=O)N[C@@H](C)C(=O)N[C@H]1CSCc3cc4cc(c3)CSC[C@H](NC(=O)[C@@H](C)NC(=O)[C@H](Cc3cccc5ccccc35)NC(=O)[C@H](CCC(=O)O)NC(=O)[C@H](CC(N)=O)NC(=O)[C@@H](C)NC1=O)C(=O)N[C@@H](CCC(=O)O)C(=O)N[C@@H](CC(=O)O)C(=O)N[C@@H](Cc1ccccc1)C(=O)N[C@@H](Cc1ccc(O)cc1)C(=O)N[C@@H](CC(=O)O)C(=O)N[C@@H](C(C)(C)C)C(=O)N[C@H](C(N)=O)CSC4)[C@]1(C)O[C@H]1[C@H](C)[C@@H]1C[C@@](O)(NC(=O)O1)[C@H](OC)/C=C/C=C(\C)C2 (stereo partly shown) [BT1718] ({X1-βAla}-[Sar][Sar][Sar][Sar][Sar][Sar][Sar][Sar][Sar][Sar]AC[dA]NE[1Nal][dA]CEDFYD[Tle]C-NH2; linker 12-18-25 via TBMB (inferred))
- Body Weight (1 mpk biw, day 0): 23.9 ± 0.7 g
- Tumor Volume (1 mpk biw, day 0): 170 ± 9 mm^3
- Body Weight (1 mpk biw, day 2): 23.5 ± 0.7 g
- Tumor Volume (1 mpk biw, day 2): 224 ± 33 mm^3
- Body Weight (1 mpk biw, day 4): 24.0 ± 0.9 g
- Tumor Volume (1 mpk biw, day 4): 352 ± 69 mm^3
- Body Weight (1 mpk biw, day 7): 24.4 ± 0.7 g
- Tumor Volume (1 mpk biw, day 7): 587 ± 134 mm^3
- Body Weight (1 mpk biw, day 9): 24.6 ± 0.8 g
- Tumor Volume (1 mpk biw, day 9): 840 ± 155 mm^3
- Body Weight (1 mpk biw, day 11): 25.2 ± 1.1 g
- Tumor Volume (1 mpk biw, day 11): 1265 ± 144 mm^3
- Body Weight (1 mpk biw, day 14): 26.0 ± 1.0 g
- Tumor Volume (1 mpk biw, day 14): 1455 ± 130 mm^3
- Body Weight (3 mpk biw, day 0): 23.6 ± 0.4 g
- Tumor Volume (3 mpk biw, day 0): 166 ± 13 mm^3
- Body Weight (3 mpk biw, day 2): 23.6 ± 0.5 g
- Tumor Volume (3 mpk biw, day 2): 241 ± 20 mm^3
- Body Weight (3 mpk biw, day 4): 24.0 ± 0.8 g
- Tumor Volume (3 mpk biw, day 4): 377 ± 38 mm^3
- Body Weight (3 mpk biw, day 7): 24.8 ± 0.8 g
- Tumor Volume (3 mpk biw, day 7): 605 ± 84 mm^3
- Body Weight (3 mpk biw, day 9): 24.4 ± 0.9 g
- Tumor Volume (3 mpk biw, day 9): 732 ± 95 mm^3
- Body Weight (3 mpk biw, day 11): 25.1 ± 0.8 g
- Tumor Volume (3 mpk biw, day 11): 1095 ± 207 mm^3
- Body Weight (3 mpk biw, day 14): 25.0 ± 0.7 g
- Tumor Volume (3 mpk biw, day 14): 1343 ± 349 mm^3
- Body Weight (10 mpk biw, day 0): 23.3 ± 1.4 g
- Tumor Volume (10 mpk biw, day 0): 168 ± 6 mm^3
- Body Weight (10 mpk biw, day 2): 22.5 ± 1.7 g
- Tumor Volume (10 mpk biw, day 2): 209 ± 31 mm^3
- Body Weight (10 mpk biw, day 4): 22.4 ± 1.7 g
- Tumor Volume (10 mpk biw, day 4): 269 ± 23 mm^3
- Body Weight (10 mpk biw, day 7): 22.6 ± 1.9 g
- Tumor Volume (10 mpk biw, day 7): 419 ± 22 mm^3
- Body Weight (10 mpk biw, day 9): 22.4 ± 1.8 g
- Tumor Volume (10 mpk biw, day 9): 442 ± 23 mm^3
- Body Weight (10 mpk biw, day 11): 22.3 ± 1.9 g
- Tumor Volume (10 mpk biw, day 11): 442 ± 26 mm^3
- Body Weight (10 mpk biw, day 14): 22.7 ± 2.0 g
- Tumor Volume (10 mpk biw, day 14): 421 ± 31 mm^3
- Best response at 10 mg/kg (NCI-H1975, 10 mg/kg): CR
- TGI (NCI-H1975, 1 mpk, biw, day 14): 3.0%
- Tumor Volume (NCI-H1975, 1 mpk, biw, day 14): 1455 ± 130 mm^3
- TGI (NCI-H1975, 3 mpk, biw, day 14): 11.2%
- Tumor Volume (NCI-H1975, 3 mpk, biw, day 14): 1343 ± 349 mm^3
- TGI (NCI-H1975, 10 mpk, biw, day 14): 80.9%
- Tumor Volume (NCI-H1975, 10 mpk, biw, day 14): 421 ± 31 mm^3
- Minimally Effective Dose IV BIW (NCI-H1975, dose leading to tumor-stasis): <10 mg/kg
- tumor volume after regression (after 4 weeks 10 mg/kg biw): below 50 mm3
- body weight effect (at PG-D40): marked body weight lost
